Results from PubChem BioAssay (NCI).
Where “and” joins values, the source holds several entries; their conditions need not be identical. Equal values may be shown once.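 Where inhibition never reached the appropriate level, the endpoint shown equals the highest concentration tested. Otherwise, values were interpolated linearly from a five-concentration, 48-hour dose response in 96-well plates. GI50 marks 50% less growth. At the TGI there is no net growth.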

Columns and labels:
Assay in all cases: NCI tumour cell line growth inhibition, 48 h
[1] = tested on: UACC-62 melanoma
[2] = tested on: MOLT-4 leukemia
[3] = tested on: 786-0 renal
[4] = tested on: CAKI-1 renal
[5] = tested on: HS 578T breast
[6] = tested on: NCI-H460 lung
[7] = tested on: DU-145 prostate

Row | Structure (SMILES) | GI50 [1] [µM] | TGI [1] [µM] | GI50 [2] [µM] | TGI [2] [µM] | GI50 [3] [µM] | TGI [3] [µM] | GI50 [4] [µM] | TGI [4] | GI50 [5] [µM] | TGI [5] [µM] | GI50 [6] [µM] | TGI [6] [µM] | GI50 [7] [µM] | TGI [7] [µM]
1 | COC(=O)c1oc2c(C(=O)/C=C/c3ccc(OC)cc3)c(OCCN(C)C)ccc2c1C | 12.3 | 27.1 | 2.59 | 7.47 | 9.4 | 22.3 | 6.95 | 20.2 µM | 6.27 | 22.4 | 4.56 | 17.5 | 2.82 | 10.7
2 | CN1CCN(Cc2ccc(NC(=O)c3cncc(C#Cc4cnc(N)c5cccnc45)c3)cc2C(F)(F)F)CC1 | 0.182 | 0.956 | 0.214 | > 50 | 1.26 | > 50 | – | > 50 µM | 0.196 | 1.61 | 0.272 | > 50 | 0.309 | > 50
3 | CCOC(=O)C(C#N)C1=CC(=O)C(=O)c2ccc(O)cc21 (configuration not stated) | – | 36.9 | – | > 100 | – | > 100 | – | > 100 µM | – | > 100 | – | > 100 | – | > 100
4 | O=C(O)C1[O][Sb][O]C(C(=O)O)C1O (configuration not stated) | > 100 | > 100 | > 100 | > 100 | > 100 | > 100 | > 100 | > 100 µM | > 100 | > 100 | > 100 | > 100 | > 100 | > 100
5 | Cc1cn(Cc2ccc(C34CC5CC(CC(C5)C3)C4)c(O)c2)c(=O)[nH]c1=O | 7.34 | 20.4 | 7.5 | 27.5 | 12.6 | 27 | 10.1 | 23.3 µM | 8.42 | 33.8 | 12.6 | 42.3 | 13.7 | 26.6
6 | O=C1c2ccccc2-c2c1c1ccccc1c(=O)n2CCCNCCn1c2c(c3ccccc3c1=O)C(=O)c1ccccc1-2 | 5.04 | 19.3 | – | – | 1.98 | 9.64 | 14.3 | 28.7 µM | 16.5 | 64.6 | 3.02 | 17.6 | 1.89 | 12
7 | CSc1nc2c(c(=O)n1C)CN(C1CCCCC1)C(=O)C(c1ccccc1)N2 (configuration not stated) | 8.01 | 57.8 | 12.2 | 39 | 68.3 | > 100 | 26.9 | > 100 µM | 15.9 | 80.7 | 37.2 | > 100 | 64.4 | > 100
8 | O=C1O/C(=C/c2ccccc2)C(c2ccccc2)=C1O | – | 33.8 | – | > 100 | – | > 100 | – | > 100 µM | – | – | – | – | – | 97
9 | CC1(C)CCCC(C)(C2CCC3(C)C2C(O)CC2C4(C)CCC(O)C(C)(C)C4CCC23C)O1 (configuration not stated) | – | > 100 | – | > 100 | – | > 100 | – | > 100 µM | – | 89.1 | – | > 100 | – | > 100
10 | CC(C)COc1nc2c(c(=O)n(C)c(=O)n2C)n1C | > 100 | > 100 | > 100 | > 100 | > 100 | > 100 | 18.2 | > 100 µM | 64.1 | > 100 | > 100 | > 100 | > 100 | > 100
11 | Nc1nc(/C=C\c2ccccc2)nc(N2CCN(c3ccccc3)CC2)n1 | 26 | 91.6 | 36.8 | > 100 | 16.2 | 34.8 | 15.6 | 43.6 µM | 61.8 | > 100 | 24.5 | > 100 | 39.5 | > 100
12 | CCN(CC)CCCC(C)N/C(=C1\C(=O)NC(=O)\C1=C(/NC(C)CCCN(CC)CC)c1cccc(OC)c1)c1cccc(OC)c1 (configuration not stated) | 0.859 | 1.62 | 0.312 | 2.09 | 0.833 | 2.64 | 1.03 | 2.52 µM | 1.11 | 3.22 | 0.58 | 2.05 | 1.02 | 4.5
13 | CC(=O)N1N=C(c2ccc(Nc3nc(Nc4ccc(F)cc4)nc(Nc4ccc(F)cc4)n3)cc2)CC1c1ccc(N(C)C)cc1 (configuration not stated) | 2.95 | 12.3 | 1.57 | 5.7 | 5.09 | 23.3 | 15.6 | 93.1 µM | 1.6 | 9.02 | 4.9 | 17 | 11.9 | 32
14 | O=C(c1ccc(Cl)cc1)C(O)c1ccc(Cl)cc1 (configuration not stated) | – | > 100 | – | 75.6 | – | > 100 | – | > 100 µM | – | > 100 | – | > 100 | – | > 100
15 | CO[C@H]1CC(O[C@@H]2/C(C)=C/C[C@@H]3C[C@@H](C[C@]4(CC[C@H](C)[C@@H](C5CCCCC5)O4)O3)OC(=O)[C@@H]3C=C(C)/C(=N/O)[C@H]4OC/C(=C\C=C\[C@@H]2C)[C@]43O)O[C@@H](C)C1O (some centres not stated) | 0.786 | 1.54 | 1.12 | 2.53 | 1.14 | 2.62 | 1.14 | 3.32 µM | 1.22 | 5.52 | 0.793 | 1.51 | 0.833 | 1.62
16 | CCCCCC/C=C\CCCCCCCCCC1=C(CN2CCN(C)CC2)C(=O)C=C(OC)C1=O | – | 25.5 | – | 1.65 | – | 2.9 | – | 7.03 µM | – | 24.5 | – | 23.2 | – | 26.2
17 | NS(=O)(=O)c1cc(C(=O)O)c(O)c2ccccc12 | – | > 100 | – | > 100 | – | > 100 | – | > 100 µM | – | > 100 | – | > 100 | – | > 100
18 | CCN(Cc1cccc(Cl)c1)c1ccc(CO)c(Cl)c1 | 0.116 | 1.07 | 12.1 | 34.7 | 5.96 | 20.9 | 0.724 | 10.1 µM | 13.6 | 37.5 | 0.35 | 12.3 | 11.6 | 24.8
19 | COc1cccc(Nc2nc3ccccc3c3occc23)c1 | 9.37 | 24.6 | – | – | 10.7 | 23.7 | 4.19 | 15.6 µM | 9.07 | 29.7 | 25.2 | > 100 | 10.9 | 22.9
20 | C=CCC(N[C@H](CO)c1ccccc1)c1cn(Cc2ccccc2Cl)c(=O)n(Cc2ccccc2Cl)c1=O (some centres not stated) | 7.64 | 27.1 | – | – | 12.7 | 64.1 | 4.46 | 32.2 µM | 26 | > 100 | 18.3 | > 100 | 23.5 | 95.5
21 | N#Cc1cnc(Nc2cc(NC[C@H]3CNCCO3)c(C(F)(F)F)cn2)cn1 | 5.17 | 25.1 | 3.61 | 55.2 | 0.668 | 29 | – | – | 0.882 | 60.3 | 13.4 | 38.3 | 8.07 | 40.2
22 | CCCCCCCCCC[C@H](O)[C@H](O)CC[C@@H](O)[C@H]1CC[C@@H]([C@H]2CC[C@H](CCCCCCC[C@@H](O)CC3=C[C@H](C)OC3=O)O2)O1 | – | 5.95 | 23.9 | 94.7 | 30.9 | > 100 | 32.4 | 9.67 µM and 89 µM | – | – | 0.39 | 29.6 | – | –
23 | CCCCCCCCCCCCOC1C(CNC(=O)C2OC3OC(C)(C)OC3C2NC(=O)CN2CCN(c3ccc(OC)cc3)CC2)OC2OC(C)(C)OC21 (configuration not stated) | 5.44 | 18.3 | 3.12 | 10.8 | 11.8 | 24 | 12.1 | 24.5 µM | 3.78 | 17 | – | – | 4.56 | 15.6
24 | Cc1cc2c(-c3nc4ccccn4c3N)c(O)c(O)cc2c(O)c1-c1c(C)cc2c(-c3nc4ccccn4c3N)c(O)c(O)cc2c1O | 0.723 | 7.05 | 1.01 | > 25 | 2.82 | > 25 | – | – | 0.797 | > 25 | 0.103 | 3.11 | – | –
25 | CC1NC(=O)C2=C1C(=O)NC(=O)C2 (configuration not stated) | > 100 | > 100 | – | – | > 100 | > 100 | > 100 | > 100 µM | > 100 | > 100 | > 100 | > 100 | > 100 | > 100
26 | CN1CCN(C(=O)COc2ccc(/C=C3\CC4C5CC=C6CC(Cl)CCC6(C)C5CCC4(C)C3=O)cc2)CC1 (configuration not stated) | > 100 | > 100 | – | – | 88.1 | > 100 | > 100 | > 100 µM | – | – | – | – | > 100 | > 100
27 | c1ccc(CNCCN(CCNCc2ccccn2)Cc2ccc3ccccc3c2)nc1 | 2.17 | 4.7 | 2.58 | 7.5 | 2.34 | 8.15 | – | – | – | – | 2.14 | 5 | 2.79 | 10.3
